# pKi: −log10 of the molar value. Entries after “also recorded” stand apart in the source; their conditions may differ.
# How the values were obtained:
# [1] = tested on: TNF-α and IL-1β production; experiment: Cytokine-specific ELISA in Pam3CSK4-activated RAW 264.7 cells; format: cell-based, mouse
# Experimental: RAW 264.7 cells were planted in 6-well plates at 1,000,000 cells per well with 3 mL of medium (RPMI 1640 medium, supplemented with 10% FBS, penicillin (100 U/mL) and streptomycin ([…])) and grown for 24 h at 37° C. in a 5% CO2 humidified incubator. After 24 h, non-adherent cells and media were removed and replaced with fresh RPMI 1640 medium (3 mL/well). Two wells of adherent macrophages were treated with Pam3CSK4 (Invivogen, 300 ng/mL) as the positive control, two wells was treated with 8 μM compound 17, and the other two wells ware treated with 8 μM compound DMSO. Another 6 well plate were treated with Pam3CSK4 (Invivogen, 300 ng/mL) and different concentration of 17. Plates were then incubated for an additional 24 h. […] Approximately 400 μL of supernatant were collected into new tubes, frozen at −80° C. until ready for cytokine measurement. The production of the cytokine interleukin-1β (IL-1β) and TNF-α was quantified with enzyme-linked immunosorbent assays (ELISA) using cytokine-specific capture antibodies, biotinylated monoclonal detection antibodies, and recombinant human cytokine standards according to commercially available ELISA kits from R&D Systems. The cytokine level in each sample was determined in duplicate.
# TLR1/2 = TLR1/2 (Homo sapiens, UniProt O60603+Q15399); experiment: Fluorescence anisotropy competition assay with rhodamine-labeled Pam3CSK4; format: binding; design: His; TLR2 made in house; host or cells: baculovirus; Sf-9 for virus, High Five insect cells for expression (TLR2)
# From the text: The TLR2 protein was expressed in the baculovirus insect cell expression system using the methods described by Kuroki et al. See Iwaki et al., The extracellular Toll-like receptor 2 domain directly binds peptidoglycan derived from Staphylococcus aureus, J. Biol Chem (2002), 277:24315-20, which is herein incorporated by reference in its entirety. The activity of the TLR2 protein was validated by the fluorescence anisotropy assay. […] Good fitting (R2>0.98) inferred that compound 17 and Pam3CSK4 compete for the same binding site on the TLR1/2 dimeric surface.
# In 500 μL Tris buffer (pH=7.2) add 10 μL, (1 ng/mL) rhodamine-labeled Pam3CSK4, test the fluorescence anisotropy at excitation of 549 nm and emission of 566 nm (Horiba Fluorolog 3). And 5 μL (20 μM) TLR1 (R &D) and 5 μL, (20 μM) TLR2 was added into the above buffer, then retest the anisotropy. Following, compound 17 or compound 6 was added in the buffer from the concentration of 0 to 6 μM, and the fluorescence anisotropy was tested in the corresponding concentration.
# Fluorescence polarization experiments were performed at 25° C. using a Horiba Fluorolog-3 fluorometer. For direct binding measurements, serial dilutions of TLR1 (R&D, MN) and TLR2 were made in Tris buffer (pH=7.2), and an aliquot (10 μL) of 1 ng/mL rhodamine labeled Pam3CSK4, was added to a total volume of 500 μL. The competition binding solution was incubated for 30 minutes at 25° C. Serial dilutions of compound 17 or compound 6 were incubated with 20 μM TLR1, 20 μM TLR2 and rhodamine-labeled Pam3CSK4 for 30 min at room temperature.
# Regression analysis was carried out using Origin 7.5 (OriginLab) ligand binding macro module. […] Equation (1): y=min+(max−min)/(1+10^x-logIC50)(total binding, x=log concentration of and rhodamine-labeled Pam3CSK4, min=nonspecific binding, max=maximum binding in absence of ligand). Equation (2): Ki=IC50/(1+[L]/Kd) ([L]=concentration of rhodamine-labeled Pam3CSK4).
# [2] = tested on: isolated microglial cells; experiment: IL-1β inhibition in isolated microglial cells incubated with Pam3CSK4; format: cell-based; conditions: Pam3CSK4 and compound for 2 hours, N=4, listed as CU-CPT22
# Experimental: In vitro testing was conducted using primary cells (isolated microglial cells) incubated with Pam3CSK4 and CU-CPT22 for 2 hours.
# RAW 264.7 cells = experiment: MTT cytotoxicity assay; format: cell-based, mouse; conditions: for cytotoxicity: at the active dose, RAW 264.7 cells, MTT
# Experimental: MTT Cytotoxicity Assay. In a 96-well plate 10,000 cells in 200 μL media (RPMI 1640 medium, supplemented with 10% FBS, penicillin (100 U/mL) and streptomycin ([…])) per well. Eight wells were left empty for blank controls. The plates were incubated (37° C., 5% CO2) overnight to allow the cells to attach to the wells. Add 20 ul (5 mg/mL) MTT solution to each well. Place on a shaking table, 150 rpm for 5 minutes, to thoroughly mix the MTT into the media. Incubate (37° C., 5% CO2) for 4 hours to allow the MTT to be metabolized. Dump off the media. Dry plate on paper towels to remove residue. Resuspend formazan (MTT metabolic product) in 200 ul DMSO. Place on a shaking table, 150 rpm for 5 minutes, to thoroughly mix the formazan into the solvent. When a clear difference could be seen by naked eye, results were read by spectrophotometer at 560 nm. Optical density should be directly correlated with cell quantity. Cytotoxicity (%) was determined using the following formula: Cytotoxicity (%) (1−[Compounds (OD560)−Background(OD560)]/[Control (OD560)−Background (OD560)])×100.
# pro-inflammatory mRNA = experiment: In vivo ICM co-administration with Pam3CSK4, hippocampal mRNA by real time RT-PCR; conditions: 5 ng or 50 ng ICM with Pam3CSK4 40 ng; hippocampus 2 hours after injection; listed as CU-CPT22
# Experimental: In vivo testing was conducted by the administration of Pam3CSK4 and CU-CPTP22. CU-CPT22 (5 ng or 50 ng), suspended in 5 μl sterile saline or vehicle, was co-administered with the TLR2 agonist Pam3CSK4 (40 ng/4 μl) to the animal via the cisterna magna (ICM) with a 1 μl air bubble separating the two reagents. Two hours after injection, the animal's hippocampus was collected for pro-inflammatory mRNA analysis using real time RT-PCR procedures. […] (N=8 for each group).
# Sequence of TLR1/2 (Q15399 25-580 limits assumed): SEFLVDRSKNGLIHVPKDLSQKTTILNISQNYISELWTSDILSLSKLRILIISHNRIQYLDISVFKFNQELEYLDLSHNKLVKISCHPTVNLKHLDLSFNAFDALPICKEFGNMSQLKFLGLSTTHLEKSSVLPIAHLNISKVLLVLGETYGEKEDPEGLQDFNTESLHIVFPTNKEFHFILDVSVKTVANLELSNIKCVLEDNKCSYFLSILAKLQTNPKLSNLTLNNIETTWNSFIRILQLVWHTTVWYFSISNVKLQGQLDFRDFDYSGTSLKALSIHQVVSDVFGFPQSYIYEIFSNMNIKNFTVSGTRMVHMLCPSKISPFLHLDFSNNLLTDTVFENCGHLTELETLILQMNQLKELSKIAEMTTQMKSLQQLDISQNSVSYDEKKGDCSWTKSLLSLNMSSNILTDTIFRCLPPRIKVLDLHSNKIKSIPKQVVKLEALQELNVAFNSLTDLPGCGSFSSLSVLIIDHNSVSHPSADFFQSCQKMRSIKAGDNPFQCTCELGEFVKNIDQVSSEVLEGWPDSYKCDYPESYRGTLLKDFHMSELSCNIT
# Sequence of TLR1/2 (O60603 21-588 limits assumed): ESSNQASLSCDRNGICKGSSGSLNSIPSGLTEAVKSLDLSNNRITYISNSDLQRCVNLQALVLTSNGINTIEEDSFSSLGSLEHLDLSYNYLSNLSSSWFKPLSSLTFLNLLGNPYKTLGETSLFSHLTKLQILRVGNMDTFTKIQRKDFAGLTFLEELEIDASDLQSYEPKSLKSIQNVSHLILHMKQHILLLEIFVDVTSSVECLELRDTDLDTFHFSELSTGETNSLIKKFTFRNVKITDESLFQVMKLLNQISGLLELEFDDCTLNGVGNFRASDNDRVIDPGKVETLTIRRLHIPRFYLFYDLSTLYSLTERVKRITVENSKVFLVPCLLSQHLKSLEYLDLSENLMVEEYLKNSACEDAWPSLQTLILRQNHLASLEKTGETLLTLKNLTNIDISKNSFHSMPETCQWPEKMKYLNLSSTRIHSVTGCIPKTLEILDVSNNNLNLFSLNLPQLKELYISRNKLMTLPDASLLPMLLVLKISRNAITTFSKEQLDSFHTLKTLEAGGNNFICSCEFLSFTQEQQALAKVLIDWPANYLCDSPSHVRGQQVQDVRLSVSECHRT
smiles,measurement,setting,value
"CCCCCCOC(=O)c1cc(O)c(=O)c2c(O)c(O)c(OC)cc2c1 [compound 17, Hexyl 3,4,6-trihydroxy-2-methoxy-5-oxo-5H-benzo[7]annulene-8-carboxylate]",TNF-α inhibition (ELISA),"[1]; RAW 264.7, 300 ng/mL Pam3CSK4",TNF-α inhibition
same,IL-1β production (ELISA),"[1]; RAW 264.7, activated by 300 ng/mL Pam3CSK4",inhibited
same,anisotropy of rhodamine-labeled Pam3CSK4 with TLR1/2,TLR1/2; compound concentration increased to 6 μM,decreased the anisotropy to background levels
same,competition with Pam3CSK4 for TLR1/2 (in words),TLR1/2; fluorescence anisotropy,competitive binding
same,pKi,"TLR1/2; rhodamine-labeled Pam3CSK4, one-site competition model, read-out: inhibition constant (Ki), competition with Pam3CSK4 for binding to TLR1/2",6.39
same,inhibition of IL-1β,[2],Dose-dependent inhibition
same,cytotoxicity,RAW 264.7 cells,no significant cytotoxicity
same,cytotoxicity,RAW 264.7 cells; listed as CU-CPT22,low toxicity
same,toxicity by MTT assay,RAW 264.7 cells; under 8 μM,no significant toxicity issues
same,IL-6 / M-6 mRNA expression (FIG. 10c),pro-inflammatory mRNA,strongly inhibits; also recorded: strong inhibition
same,TNF-α mRNA expression (FIG. 10b),pro-inflammatory mRNA,strongly inhibits; also recorded: strong inhibition
same,mRNA expression (FIG. 10a),pro-inflammatory mRNA,strongly inhibits; also recorded: strong inhibition

# Source: patent US9517993B2, “Antagonists of the toll-like receptor 1/2 complex” (THE REGENTS OF THE UNIVERSITY OF COLORADO, a body corporate, priority 2012, dated 2016)
